According to the supplement of paper PMC11451515:

Legend:
Conditions in all cases: 48 h
P12-Ichikawa [1] = test: cell viability relative to DMSO control; higher = less cytotoxic
Procedure, shortened: (§1)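 Viability values are per-plate percentages of DMSO wells, with background from cell-free wells. Library compounds in DMSO were pin-dosed, in an 11-point threefold series from 47 μM to 0.79 nM, onto NOMO1 or SEM (500 cells/well) or P12-Ichikawa (1000 cells/well) leukemia cells in 1536-well plates (5 μl). Those cells had been adapted for at least four passages in each medium, and CellTiter-Glo One luminescence was read after 48 h at 37°C.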

SEM cells [2] = test: as above
Procedure, shortened: as §1

NOMO1 [3] = test: as above
Procedure, shortened: as §1

P12-Ichikawa [4] = test: AUC of viability dose-response curve (% viability x log10 dose units); higher = less sensitive
Procedure, shortened: (§2)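 Viability of medium-adapted leukemia cells was measured by CellTiter-Glo One luminescence after 48 h at 37°C with library compounds in DMSO. Doses were 11 threefold steps from 47 μM to 0.79 nM, in 1536-well plates at 500 or 1000 cells/well. Signals were normalised per plate to DMSO and cell-free wells and fitted with a four-parameter log-logistic model on log10 dose. Area under the curve was integrated by trapezoidal rule, with curves exceeding full viability scaled and failed quality-control curves removed.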

NOMO1 [5] = test: as above
Procedure, shortened: as §2

SEM cells [6] = test: as above
Procedure, shortened: as §2

CC[C@]1(O)C[C@H]2CN(CCC3=C([NH]C4=C3C=CC=C4)[C@@](C2)(C(=O)OC)C5=CC6=C(C=C5OC)N(C=O)[C@H]7[C@](O)([C@H](OC(C)=O)[C@]8(CC)\C=C/C[N@@]9CC[C@]67[C@H]89)C(=O)OC)C1
cell viability [%]
Conditions | NOMO1 [3] | P12-Ichikawa [1] | SEM cells [2]
HPLM + 10% dialyzed FBS, 0.000781 µM | 119 | 118 | 114
HPLM + 10% dialyzed FBS, 0.00234 µM | 117 | 117 | 104
HPLM + 10% dialyzed FBS, 0.00702 µM | 127 | 119 | 95.2
HPLM + 10% dialyzed FBS, 0.0211 µM | 110 | 82.3 | 84
HPLM + 10% dialyzed FBS, 0.0632 µM | 35.3 | 21.6 | 36.5
HPLM + 10% dialyzed FBS, 0.19 µM | 34.7 | 17.7 | 24.7
HPLM + 10% dialyzed FBS, 0.569 µM | 43.2 | 11 | 20.7
HPLM + 10% dialyzed FBS, 1.71 µM | 47 | 10.2 | 23.2
HPLM + 10% dialyzed FBS, 5.12 µM | 47.1 | 11.3 | 16.4
HPLM + 10% dialyzed FBS, 15.4 µM | 50.9 | 9.28 | 10.7
HPLM + 10% dialyzed FBS, 46.1 µM | 41.6 | 8.54 | 7.67
RPMI 5 mM glucose + 10% FBS, 0.000781 µM | 120 | 115 | 70.8
RPMI 5 mM glucose + 10% FBS, 0.00234 µM | 118 | 109 | 70.8
RPMI 5 mM glucose + 10% FBS, 0.00702 µM | 127 | 112 | 67
RPMI 5 mM glucose + 10% FBS, 0.0211 µM | 116 | 75.1 | 39.6
RPMI 5 mM glucose + 10% FBS, 0.0632 µM | 38.9 | 19.5 | 13.4
RPMI 5 mM glucose + 10% FBS, 0.19 µM | 24.4 | 15.9 | 11
RPMI 5 mM glucose + 10% FBS, 0.569 µM | 23 | 9.98 | 12
RPMI 5 mM glucose + 10% FBS, 1.71 µM | 30.7 | 8.03 | 8.09
RPMI 5 mM glucose + 10% FBS, 5.12 µM | 28.6 | 8.69 | 4.93
RPMI 5 mM glucose + 10% FBS, 15.4 µM | 30.4 | 8.09 | 3.51
RPMI 5 mM glucose + 10% FBS, 46.1 µM | 25.8 | 6.94 | 2.93
RPMI 5 mM glucose + 10% dialyzed FBS, 0.000781 µM | – | 105 | 99.8
RPMI 5 mM glucose + 10% dialyzed FBS, 0.00234 µM | – | 108 | 108
RPMI 5 mM glucose + 10% dialyzed FBS, 0.00702 µM | – | 110 | 106
RPMI 5 mM glucose + 10% dialyzed FBS, 0.0211 µM | – | 106 | 90.3
RPMI 5 mM glucose + 10% dialyzed FBS, 0.0632 µM | – | 35.6 | 46.3
RPMI 5 mM glucose + 10% dialyzed FBS, 0.19 µM | – | 34.6 | 18
RPMI 5 mM glucose + 10% dialyzed FBS, 0.569 µM | – | 20.5 | 16.2
RPMI 5 mM glucose + 10% dialyzed FBS, 1.71 µM | – | 12 | 18.1
RPMI 5 mM glucose + 10% dialyzed FBS, 5.12 µM | – | 12.1 | 11.5
RPMI 5 mM glucose + 10% dialyzed FBS, 15.4 µM | – | 12.8 | 6.29
RPMI 5 mM glucose + 10% dialyzed FBS, 46.1 µM | – | 12.6 | 5.26

AUC of viability dose-response curve
Conditions | HPLM + 10% dialyzed FBS | RPMI 5 mM glucose + 10% FBS | RPMI 5 mM glucose + 10% dialyzed FBS
NOMO1 [5] | 272 | 239 | 264
P12-Ichikawa [4] | 185 | 180 | 224

CCN1CCCC1CNC(=O)c1cc(S(=O)(=O)CC)c(N)cc1OC (stereo unspecified)
AUC of viability dose-response curve
Conditions | NOMO1 [5] | P12-Ichikawa [4] | SEM cells [6]
HPLM + 10% dialyzed FBS | 458 | 463 | 474
RPMI 5 mM glucose + 10% FBS | 459 | 461 | 474
RPMI 5 mM glucose + 10% dialyzed FBS | 469 | 469 | 453

C[C@@H](c1ncncc1F)[C@](O)(Cn1cncn1)c1ccc(F)cc1F
cell viability [%]
Conditions | NOMO1 [3] | P12-Ichikawa [1] | SEM cells [2]
HPLM + 10% dialyzed FBS, 0.000781 µM | 117 | 111 | 119
HPLM + 10% dialyzed FBS, 0.00234 µM | 121 | 115 | 116
HPLM + 10% dialyzed FBS, 0.00702 µM | 110 | 110 | 118
HPLM + 10% dialyzed FBS, 0.0211 µM | 110 | 107 | 110
HPLM + 10% dialyzed FBS, 0.0632 µM | 125 | 107 | 121
HPLM + 10% dialyzed FBS, 0.19 µM | 114 | 107 | 25.3
HPLM + 10% dialyzed FBS, 0.569 µM | 120 | 110 | 114
HPLM + 10% dialyzed FBS, 1.71 µM | 107 | 108 | 118
HPLM + 10% dialyzed FBS, 5.12 µM | 111 | 103 | 19
HPLM + 10% dialyzed FBS, 15.4 µM | 108 | 102 | 120
HPLM + 10% dialyzed FBS, 46.1 µM | 93.3 | 89.6 | 83.4
RPMI 5 mM glucose + 10% FBS, 0.000781 µM | 111 | 123 | –
RPMI 5 mM glucose + 10% FBS, 0.00234 µM | 111 | 130 | –
RPMI 5 mM glucose + 10% FBS, 0.00702 µM | 114 | 119 | –
RPMI 5 mM glucose + 10% FBS, 0.0211 µM | 103 | 121 | –
RPMI 5 mM glucose + 10% FBS, 0.0632 µM | 108 | 111 | –
RPMI 5 mM glucose + 10% FBS, 0.19 µM | 107 | 119 | –
RPMI 5 mM glucose + 10% FBS, 0.569 µM | 126 | 116 | –
RPMI 5 mM glucose + 10% FBS, 1.71 µM | 108 | 114 | –
RPMI 5 mM glucose + 10% FBS, 5.12 µM | 107 | 98.9 | –
RPMI 5 mM glucose + 10% FBS, 15.4 µM | 91.1 | 105 | –
RPMI 5 mM glucose + 10% FBS, 46.1 µM | 93.8 | 92.6 | –
RPMI 5 mM glucose + 10% dialyzed FBS, 0.000781 µM | 111 | 109 | 123
RPMI 5 mM glucose + 10% dialyzed FBS, 0.00234 µM | 114 | 118 | 125
RPMI 5 mM glucose + 10% dialyzed FBS, 0.00702 µM | 128 | 116 | 126
RPMI 5 mM glucose + 10% dialyzed FBS, 0.0211 µM | 115 | 105 | 126
RPMI 5 mM glucose + 10% dialyzed FBS, 0.0632 µM | 111 | 111 | 141
RPMI 5 mM glucose + 10% dialyzed FBS, 0.19 µM | 97.9 | 104 | 32.3
RPMI 5 mM glucose + 10% dialyzed FBS, 0.569 µM | 108 | 108 | 140
RPMI 5 mM glucose + 10% dialyzed FBS, 1.71 µM | 116 | 107 | 103
RPMI 5 mM glucose + 10% dialyzed FBS, 5.12 µM | 99.8 | 102 | 15.2
RPMI 5 mM glucose + 10% dialyzed FBS, 15.4 µM | 111 | 89.5 | 121
RPMI 5 mM glucose + 10% dialyzed FBS, 46.1 µM | 97.4 | 91.4 | 73.9

AUC of viability dose-response curve
Conditions | HPLM + 10% dialyzed FBS | RPMI 5 mM glucose + 10% FBS | RPMI 5 mM glucose + 10% dialyzed FBS
NOMO1 [5] | 462 | 448 | 446
P12-Ichikawa [4] | 464 | 436 | 450

O=C(NCc1ccncc1)C12C[C@H]3C[C@@H](C1)CC(c1ccc(Cl)cc1)(C3)C2
AUC of viability dose-response curve
Conditions | NOMO1 [5] | P12-Ichikawa [4] | SEM cells [6]
HPLM + 10% dialyzed FBS | 419 | 415 | 414
RPMI 5 mM glucose + 10% FBS | 453 | 439 | 389
RPMI 5 mM glucose + 10% dialyzed FBS | 451 | 438 | 420
